Test results reported in US20250145665A1, “MACROCYCLIC PEPTIDES USEFUL AS MODULATORS OF TNF ALPHA” (Bristol-Myers Squibb Company, priority 2023, published 2025).
Where two headings read alike, the source gives them in different places. Positions of bridges follow the written chain, without caps; N, C: chain ends. Non-standard residues stand in square brackets, D forms with d. Residues, ends and D or L forms follow the SMILES beside them. Bip(4'-COOH) = N[C@@H](Cc1ccc(-c2ccc(C(=O)O)cc2)cc1)C(=O)O; Ala(morpholin-4-yl) = N[C@@H](CN1CCOCC1)C(=O)O; Bip = N[C@@H](Cc1ccc(-c2ccccc2)cc1)C(=O)O; Morpholine(3S-CO) = O=C(O)[C@@H]1COCCN1; Val(3-OH) = CC(C)(O)[C@H](N)C(=O)O; 2Pal = N[C@@H](Cc1ccccn1)C(=O)O; Tic = O=C(O)[C@@H]1Cc2ccccc2CN1; Aze = O=C(O)[C@@H]1CCN1; Sar = CNCC(=O)O

Molecular target: TNFα (Homo sapiens, UniProt P01375)
Test: TNF-Induced HEK-Blue Assay
Assay type: cell-based
[1] = HEK-Blue-CD40L cells, NF-kB-driven secreted alkaline phosphatase reporter, TNFα 0.5 ng/ml, 18 h, read-out: TNF induced HEK-Blue assay IC50 value

TNFα, sequence (P01375 77-233 limits assumed): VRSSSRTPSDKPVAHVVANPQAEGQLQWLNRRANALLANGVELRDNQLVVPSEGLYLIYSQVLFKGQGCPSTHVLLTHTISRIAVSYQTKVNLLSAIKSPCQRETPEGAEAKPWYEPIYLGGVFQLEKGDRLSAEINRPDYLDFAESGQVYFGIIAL

Row | SMILES | IC50 [1] | IC50
1 | CC(C)C[C@@H]1NC(=O)[C@H](CCCNC(=N)N)NC(=O)[C@H](C(C)C)NC(=O)CN(C)C(=O)[C@H](C(C)C)NC(=O)[C@@H](CCCNC(=N)N)NC(=O)[C@H](CC(=O)O)NC(=O)[C@H](Cc2ccc(O)cc2)NC(=O)CN(C)C(=O)[C@H](Cc2ccc(-c3ccccc3)cc2)NC(=O)[C@H](Cc2ccc(-c3ccccc3)cc2)NC(=O)[C@H](CN2CCOCC2)NC(=O)CSC[C@@H](C(=O)NCC(N)=O)NC1=O [Example 135] ({CH2CO}-[Ala(morpholin-4-yl)][Bip][Bip][Sar]YD[dR]V[Sar]VRLCG-NH2; thioether N-13) | 200 to 2000 nM | 
2 | CC(C)C[C@@H]1NC(=O)[C@H](Cc2ccc(O)cc2)NC(=O)[C@H](C(C)C)NC(=O)CN(C)C(=O)[C@H](C(C)C)NC(=O)[C@@H](CCCNC(=N)N)NC(=O)[C@H](CC(=O)O)NC(=O)[C@@H]2CCCN2C(=O)CN(C)C(=O)[C@H](Cc2ccc(-c3ccccc3)cc2)NC(=O)[C@H](Cc2ccc(-c3ccccc3)cc2)NC(=O)[C@H](CN2CCOCC2)NC(=O)CSC[C@@H](C(=O)NCC(N)=O)NC1=O [Example 136] ({CH2CO}-[Ala(morpholin-4-yl)][Bip][Bip][Sar]PD[dR]V[Sar]VYLCG-NH2; thioether N-13) | 50 to 200 nM | 
3 | CC(C)C[C@@H]1NC(=O)[C@H](Cc2ccc(O)cc2)NC(=O)[C@H](C(C)C)NC(=O)CNC(=O)[C@H](C(C)C)NC(=O)[C@@H](CCCNC(=N)N)NC(=O)[C@H](CC(=O)O)NC(=O)[C@H](Cc2ccc(O)cc2)NC(=O)CN(C)C(=O)[C@H](Cc2ccc(-c3ccccc3)cc2)NC(=O)[C@H](Cc2ccc(-c3ccccc3)cc2)NC(=O)[C@H](CN2CCOCC2)NC(=O)CSC[C@@H](C(=O)NCC(N)=O)NC1=O [Example 137] ({CH2CO}-[Ala(morpholin-4-yl)][Bip][Bip][Sar]YD[dR]VGVYLCG-NH2; thioether N-13) | 200 to 2000 nM | 
4 | CC(C)C[C@@H]1NC(=O)[C@H](CCCNC(=N)N)NC(=O)[C@H](C(C)C)NC(=O)CNC(=O)[C@H](C(C)C)NC(=O)[C@H](CCCNC(=N)N)NC(=O)[C@H](CC(=O)O)NC(=O)[C@H](Cc2ccc(O)cc2)NC(=O)CN(C)C(=O)[C@H](Cc2ccc(-c3ccccc3)cc2)NC(=O)[C@H](Cc2ccc(-c3ccccc3)cc2)NC(=O)[C@H](CN2CCOCC2)NC(=O)CSC[C@@H](C(=O)NCC(N)=O)NC1=O [Example 138] ({CH2CO}-[Ala(morpholin-4-yl)][Bip][Bip][Sar]YDRVGVRLCG-NH2; thioether N-13) | 200 to 2000 nM | 
5 | CC(C)C[C@@H]1NC(=O)[C@H](Cc2ccc(O)cc2)NC(=O)[C@H](C(C)C)NC(=O)CNC(=O)[C@H](C(C)C)NC(=O)[C@H](CCCNC(=N)N)NC(=O)[C@H](CC(=O)O)NC(=O)[C@@H]2CCCN2C(=O)CN(C)C(=O)[C@H](Cc2ccc(-c3ccccc3)cc2)NC(=O)[C@H](Cc2ccc(-c3ccccc3)cc2)NC(=O)[C@H](CN2CCOCC2)NC(=O)CSC[C@@H](C(=O)NCC(N)=O)NC1=O [Example 139] ({CH2CO}-[Ala(morpholin-4-yl)][Bip][Bip][Sar]PDRVGVYLCG-NH2; thioether N-13) | 200 to 2000 nM | 
6 | CC(C)C[C@@H]1NC(=O)[C@H](Cc2ccc(O)cc2)NC(=O)[C@H](C(C)C)NC(=O)CN(C)C(=O)[C@H](C(C)C)NC(=O)[C@H](CCCNC(=N)N)NC(=O)[C@H](CC(=O)O)NC(=O)[C@H](Cc2ccc(O)cc2)NC(=O)CN(C)C(=O)[C@H](Cc2ccc(-c3ccccc3)cc2)NC(=O)[C@H](Cc2ccc(-c3ccccc3)cc2)NC(=O)[C@H](C(C)(C)O)NC(=O)CSC[C@@H](C(=O)NCC(N)=O)NC1=O [Example 140] ({CH2CO}-[Val(3-OH)][Bip][Bip][Sar]YDRV[Sar]VYLCG-NH2; thioether N-13) | 200 to 2000 nM | 
7 | CC(C)C[C@@H]1NC(=O)[C@H](Cc2ccc(O)cc2)NC(=O)[C@H](C(C)C)NC(=O)CN(C)C(=O)[C@H](C(C)C)NC(=O)[C@H](CCCNC(=N)N)NC(=O)[C@H](CC(=O)O)NC(=O)[C@@H]2CCCN2C(=O)CN(C)C(=O)[C@H](Cc2ccc(-c3ccccc3)cc2)NC(=O)[C@H](Cc2ccc(-c3ccccc3)cc2)NC(=O)[C@H](C(C)(C)O)NC(=O)CSC[C@@H](C(=O)NCC(N)=O)NC1=O [Example 141] ({CH2CO}-[Val(3-OH)][Bip][Bip][Sar]PDRV[Sar]VYLCG-NH2; thioether N-13) | 50 to 200 nM | 
8 | CC(C)C[C@@H]1NC(=O)[C@H](Cc2ccc(O)cc2)NC(=O)[C@H](C(C)C)NC(=O)CN(C)C(=O)[C@H](C(C)C)NC(=O)[C@H](CCCNC(=N)N)NC(=O)[C@H](CC(=O)O)NC(=O)[C@@H]2CCCN2C(=O)CN(C)C(=O)[C@H](Cc2ccc(-c3ccccc3)cc2)NC(=O)[C@H](Cc2ccc(-c3ccccc3)cc2)NC(=O)[C@H](CC(N)=O)NC(=O)CSC[C@@H](C(=O)NCC(N)=O)NC1=O [Example 142] ({CH2CO}-N[Bip][Bip][Sar]PDRV[Sar]VYLCG-NH2; thioether N-13) |  | 200 to 2000 nM
9 | CC(C)C[C@@H]1NC(=O)[C@H](Cc2ccc(O)cc2)NC(=O)[C@H](C(C)C)NC(=O)[C@@H]2COCCN2C(=O)[C@H](C(C)C)NC(=O)[C@@H](CCCNC(=N)N)NC(=O)[C@H](CC(=O)O)NC(=O)[C@H](Cc2ccc(O)cc2)NC(=O)CN(C)C(=O)[C@H](Cc2ccc(-c3ccccc3)cc2)NC(=O)[C@H](Cc2ccc(-c3ccccc3)cc2)NC(=O)[C@H](CN2CCOCC2)NC(=O)CSC[C@@H](C(=O)NCC(N)=O)NC1=O [Example 143] ({CH2CO}-[Ala(morpholin-4-yl)][Bip][Bip][Sar]YD[dR]V[Morpholine(3S-CO)]VYLCG-NH2; thioether N-13) | < 50 nM | 
10 | CC(C)C[C@@H]1NC(=O)[C@H](Cc2ccc(O)cc2)NC(=O)[C@H](C(C)C)NC(=O)[C@@H]2CCCN2C(=O)[C@H](C(C)C)NC(=O)[C@@H](CCCNC(=N)N)NC(=O)[C@H](CC(=O)O)NC(=O)[C@H](Cc2ccccn2)NC(=O)CN(C)C(=O)[C@H](Cc2ccc(-c3ccccc3)cc2)NC(=O)[C@H](Cc2ccc(-c3ccccc3)cc2)NC(=O)[C@H](CN2CCOCC2)NC(=O)CSC[C@@H](C(=O)NCC(N)=O)NC1=O [Example 144] ({CH2CO}-[Ala(morpholin-4-yl)][Bip][Bip][Sar][2Pal]D[dR]VPVYLCG-NH2; thioether N-13) | < 50 nM | 
11 | CC(C)C[C@@H]1NC(=O)[C@H](Cc2ccc(O)cc2)NC(=O)[C@H](C(C)C)NC(=O)[C@@H]2CCN2C(=O)[C@H](CC(N)=O)NC(=O)[C@@H](CCCNC(=N)N)NC(=O)[C@H](CC(=O)O)NC(=O)[C@H](Cc2ccc(O)cc2)NC(=O)CN(C)C(=O)[C@H](Cc2ccc(-c3ccccc3)cc2)NC(=O)[C@H](Cc2ccc(-c3ccc(C(=O)O)cc3)cc2)NC(=O)[C@H](CN2CCOCC2)NC(=O)CSC[C@@H](C(=O)NCC(N)=O)NC1=O [Example 145] ({CH2CO}-[Ala(morpholin-4-yl)][Bip(4'-COOH)][Bip][Sar]YD[dR]N[Aze]VYLCG-NH2; thioether N-13) | < 50 nM | 
12 | CC(C)C[C@@H]1NC(=O)[C@H](Cc2ccc(O)cc2)NC(=O)[C@H](C(C)C)NC(=O)[C@@H]2Cc3ccccc3CN2C(=O)[C@H](CC(N)=O)NC(=O)[C@@H](CCCNC(=N)N)NC(=O)[C@H](CC(=O)O)NC(=O)[C@H](Cc2ccc(O)cc2)NC(=O)CN(C)C(=O)[C@H](Cc2ccc(-c3ccccc3)cc2)NC(=O)[C@H](Cc2ccc(-c3ccc(C(=O)O)cc3)cc2)NC(=O)[C@H](CN2CCOCC2)NC(=O)CSC[C@@H](C(=O)NCC(N)=O)NC1=O [Example 146] ({CH2CO}-[Ala(morpholin-4-yl)][Bip(4'-COOH)][Bip][Sar]YD[dR]N[Tic]VYLCG-NH2; thioether N-13) | < 50 nM | 
